Laboratory results taken from patent US6924302B2, “Substituted triazole diamine derivatives as kinase inhibitors” (Ortho McNeil Pharmaceutical, Inc., priority 2000, dated 2005).
Read-outs that look alike come from different tables or passages of the source.

Columns and labels:
CDK1:Cyclin-B = target: T1, CDK1:Cyclin-B (Homo sapiens, UniProt P06493); assay: CDK1 Screening Assay; format: biochemical; conditions: read-out: CDK1 IC50
T1 construct: purchased New England Biolabs 6020; host or cells: insect cells
T1 sequence (P06493 whole entry): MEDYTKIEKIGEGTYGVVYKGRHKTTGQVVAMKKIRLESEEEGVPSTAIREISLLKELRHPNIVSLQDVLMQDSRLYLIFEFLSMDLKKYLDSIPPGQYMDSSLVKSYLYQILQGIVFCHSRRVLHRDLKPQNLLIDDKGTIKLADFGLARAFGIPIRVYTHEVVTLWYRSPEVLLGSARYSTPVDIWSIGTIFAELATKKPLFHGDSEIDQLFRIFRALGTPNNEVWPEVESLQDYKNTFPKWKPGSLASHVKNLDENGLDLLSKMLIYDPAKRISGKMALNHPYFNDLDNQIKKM
T1 sequence (P14635 whole entry partner): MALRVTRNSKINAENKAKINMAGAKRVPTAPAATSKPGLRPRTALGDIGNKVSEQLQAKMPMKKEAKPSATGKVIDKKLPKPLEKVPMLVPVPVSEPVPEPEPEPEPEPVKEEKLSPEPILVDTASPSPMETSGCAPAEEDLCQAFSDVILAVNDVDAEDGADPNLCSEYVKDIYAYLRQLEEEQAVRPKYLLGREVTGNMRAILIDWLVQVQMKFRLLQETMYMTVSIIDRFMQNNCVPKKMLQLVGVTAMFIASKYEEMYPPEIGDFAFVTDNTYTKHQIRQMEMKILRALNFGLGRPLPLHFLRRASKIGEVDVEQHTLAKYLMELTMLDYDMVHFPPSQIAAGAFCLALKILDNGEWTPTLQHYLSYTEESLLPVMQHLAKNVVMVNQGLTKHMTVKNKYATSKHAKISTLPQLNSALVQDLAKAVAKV
How it was run: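 Human CDK1:cyclin-B (30 ng/well) with biotinylated histone-H1 peptide and ^33P-γ-ATP, 1 h at 30° C, 1% DMSO, on streptavidin FlashPlate; incorporation read by scintillation.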

[1] = target: T2, Casein Kinase 1 (CK1 delta isoform) (Rattus norvegicus, UniProt Q06486); assay: Kinase Selectivity Assay Casein Kinase 1; format: biochemical; conditions: Tables 2a-2k, read-out: Caseine Kinase 1 IC50
T2 construct: a truncation at amino acid 318 of the C-terminal portion of the rat CK1 delta isoform; purchased New England Biolabs 6030; host or cells: E. coli
T2 sequence (Q06486 1-317): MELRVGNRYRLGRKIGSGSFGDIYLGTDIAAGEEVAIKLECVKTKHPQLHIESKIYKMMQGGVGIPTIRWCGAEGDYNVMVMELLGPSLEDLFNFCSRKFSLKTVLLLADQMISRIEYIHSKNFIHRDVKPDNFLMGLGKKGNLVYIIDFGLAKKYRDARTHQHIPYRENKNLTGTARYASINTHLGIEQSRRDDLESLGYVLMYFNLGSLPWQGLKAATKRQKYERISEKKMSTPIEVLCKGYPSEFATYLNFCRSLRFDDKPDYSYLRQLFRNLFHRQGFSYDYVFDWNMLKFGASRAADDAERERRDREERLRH
Description: (§1) Assays to test compound inhibition of other kinases were preformed using methods that measure the amount of phosphorylation of a biotinylated peptide substrate. Biotinylated peptide substrates were selected from the literature as appropriate for the enzyme being evaluated. […] Assay conditions vary slightly for each protein kinase, for example, insulin receptor kinase requires 10 mM MnCl2 for activity and Calmodulin-dependent protein kinase requires calmodulin and 10 mM CaCl2. These assay conditions are known in the art. The reaction mixture was dispensed into the wells of a streptavidin coated Flashplate and 1 μl drug stock in 100% DMSO was added to a 100 μl reaction volume resulting in a final concentration of 1% DMSO on the reaction. Enzyme was diluted in 50 mM Tris-HCl pH=8.0, 0.1% BSA and add to each well. The reaction was incubated for one hour at 30° C. in the presence of compound. After one hour the reaction mix was aspirated from the plate and the plate was washed with PBS containing 100 mM EDTA. The plate was read on a scintillation counter to determine ^33P-γ-ATP incorporated into the immobilized peptide. Test compounds were assayed in duplicate at 8 concentrations [100 uM, 10 uM, 1 uM, 100 nM, 10 nM, 1 nM, 100 pM, 10 pM]. A maximum and minimum signal for the assay was determined on each plate. The IC50 was calculated from the dose response curve of the percent inhibition of the maximum signal in the assay according to the formula [max signal—background/test compound signal—background (100)=% inhibition] by graphing the percent inhibition against the log concentration of test compound. Known inhibitor compounds appropriate for the kinase being assayed were also included on each plate.
(§2) CDK2 in complex with cyclin A is commercially available (Upstate Biotech, Lake Placid, N.Y.). The CDK4 complex was composed of a mouse CDK4 protein and a mouse Cyclin D1 protein (The mouse CDK4 protein was genetically fused to an N-terminal Flag-epitope tag and the mouse Cyclin D1 protein was fused with an N-terminal AU-1 epitope tag. The genes encoding these proteins were transferred to commercially available baculoviral vectors. The recombinant CDK4/D1 complex was then made by co-infecting commercially available insect cells with viruses carrying these two constructs). […] ERK-1 protein (Discontinued from Calbiochem). EGFR (epidermal growth factor receptor) is purified from human A431 cell membranes (Sigma, St. Louis, Mo., Cat.# E3641).

[2] = target: T3, Calmodulin Kinase (calmodulin-dependent protein kinase 2) (Rattus norvegicus, UniProt P11275); assay: Kinase Selectivity Assay Calmodulin Kinase; format: biochemical; conditions: Kinase Selectivity, Tables 2a-2k; read-out: Calmodulin Kinase 2 IC50
T3 construct: a truncated version of the alpha subunit of the rat protein; purchased New England Biolabs 6060; host or cells: insect cells
Description: as §1, §2

Protein Kinase A = target: T4, Protein Kinase A (Bos taurus, UniProt P00517); assay: Kinase Selectivity Assay Protein Kinase A; format: biochemical, bovine; conditions: Kinase Selectivity, Tables 2a-2k; read-out: PKA IC50
T4 construct: purified from bovine heart; purchased Upstate Biotech 14-114; host or cells: bovine heart
Description: as §1, §2

[3] = target: T5, PDGF-R (platelet derived growth factor receptor) beta subunit kinase domain (Homo sapiens, UniProt P09619); assay: Kinase Selectivity Assay PDGF-R; format: biochemical; conditions: Kinase Selectivity, Tables 2a-2k; read-out: PDGF-R kinase IC50
T5 construct: nucleotides 1874-3507 of the human PDGF-R beta subunit kinase domain; polyhistidine (N)
T5 sequence (P09619 564-1106): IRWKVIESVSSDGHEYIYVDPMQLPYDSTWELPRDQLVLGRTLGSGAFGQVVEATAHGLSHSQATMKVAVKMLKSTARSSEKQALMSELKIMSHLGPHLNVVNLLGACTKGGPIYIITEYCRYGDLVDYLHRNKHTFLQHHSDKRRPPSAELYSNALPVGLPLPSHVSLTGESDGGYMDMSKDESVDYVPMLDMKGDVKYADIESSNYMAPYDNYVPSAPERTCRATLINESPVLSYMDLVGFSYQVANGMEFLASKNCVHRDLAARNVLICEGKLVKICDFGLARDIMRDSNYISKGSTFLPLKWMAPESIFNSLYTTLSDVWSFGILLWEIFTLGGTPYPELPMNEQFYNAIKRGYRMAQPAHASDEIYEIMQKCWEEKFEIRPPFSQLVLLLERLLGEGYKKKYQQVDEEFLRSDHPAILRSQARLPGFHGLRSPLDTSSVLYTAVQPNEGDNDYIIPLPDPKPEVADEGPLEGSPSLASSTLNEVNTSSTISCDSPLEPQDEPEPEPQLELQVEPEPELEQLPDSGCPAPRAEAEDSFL
Description: as §1, §2

[4] = target: T6, Casein Kinase 2 (alpha and beta subunits) (Homo sapiens, UniProt P68400); assay: Kinase Selectivity Assay Casein Kinase 2; format: biochemical; conditions: Kinase Selectivity, Tables 2a-2k; read-out: Caseine Kinase 2 IC50
T6 construct: purchased New England Biolabs 6010; host or cells: E. coli
T6 sequence (P68400 whole entry): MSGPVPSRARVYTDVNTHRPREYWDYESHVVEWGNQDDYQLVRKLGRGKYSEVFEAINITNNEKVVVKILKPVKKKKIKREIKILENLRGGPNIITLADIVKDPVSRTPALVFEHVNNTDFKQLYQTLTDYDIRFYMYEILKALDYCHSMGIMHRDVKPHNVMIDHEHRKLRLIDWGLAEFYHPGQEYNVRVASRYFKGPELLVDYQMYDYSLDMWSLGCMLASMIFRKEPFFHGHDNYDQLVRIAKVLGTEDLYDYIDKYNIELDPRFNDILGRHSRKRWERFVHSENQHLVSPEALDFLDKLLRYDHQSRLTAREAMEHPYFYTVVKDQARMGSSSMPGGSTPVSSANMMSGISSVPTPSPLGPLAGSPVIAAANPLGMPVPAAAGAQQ
T6 sequence (P67870 whole entry partner): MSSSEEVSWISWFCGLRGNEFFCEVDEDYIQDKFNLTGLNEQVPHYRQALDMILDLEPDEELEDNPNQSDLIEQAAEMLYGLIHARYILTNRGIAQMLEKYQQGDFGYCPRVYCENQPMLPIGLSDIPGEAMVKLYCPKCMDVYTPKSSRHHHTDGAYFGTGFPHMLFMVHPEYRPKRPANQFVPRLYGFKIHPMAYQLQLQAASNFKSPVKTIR
Description: as §1, §2

[5] = target: T7, MAP Kinase (ERK-2 isoform) (Rattus norvegicus, UniProt P63086); assay: Kinase Selectivity Assay MAP Kinase (ERK-2); format: biochemical; conditions: Kinase Selectivity, Tables 2a-2k; read-out: ERK 2 IC50
T7 construct: polyhistidine (N); host or cells: E. coli
T7 sequence (P63086 whole entry, canonical isoform): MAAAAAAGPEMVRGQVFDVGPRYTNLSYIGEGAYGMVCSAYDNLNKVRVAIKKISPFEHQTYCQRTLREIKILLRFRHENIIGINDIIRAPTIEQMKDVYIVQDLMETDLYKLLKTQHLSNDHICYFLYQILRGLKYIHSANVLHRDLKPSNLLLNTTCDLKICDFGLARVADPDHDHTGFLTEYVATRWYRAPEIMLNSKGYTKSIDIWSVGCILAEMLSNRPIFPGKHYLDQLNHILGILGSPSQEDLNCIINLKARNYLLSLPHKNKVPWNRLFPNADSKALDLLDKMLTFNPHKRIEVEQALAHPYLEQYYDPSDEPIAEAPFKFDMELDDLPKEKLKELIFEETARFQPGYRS
Description: as §1, §2

Insulin Receptor Kinase = Insulin Receptor Kinase (Homo sapiens, UniProt P06213); assay: Kinase Selectivity Assay Insulin Receptor Kinase; format: biochemical; conditions: Kinase Selectivity, Tables 2a-2k; read-out: Insulin R Kinase IC50
Chain of Insulin Receptor Kinase (P06213 980-1352): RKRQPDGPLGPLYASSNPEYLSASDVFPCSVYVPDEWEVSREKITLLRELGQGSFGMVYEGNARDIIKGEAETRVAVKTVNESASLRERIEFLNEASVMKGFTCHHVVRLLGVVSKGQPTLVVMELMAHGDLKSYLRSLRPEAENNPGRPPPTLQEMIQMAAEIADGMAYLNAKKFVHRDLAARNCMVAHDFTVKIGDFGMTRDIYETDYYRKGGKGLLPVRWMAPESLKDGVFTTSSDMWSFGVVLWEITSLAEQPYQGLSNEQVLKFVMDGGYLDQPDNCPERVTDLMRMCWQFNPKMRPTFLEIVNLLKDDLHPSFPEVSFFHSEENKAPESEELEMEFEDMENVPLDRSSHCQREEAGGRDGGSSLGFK
Description: as §1, §2

[6] = target: T8, HER2 (human epidermal growth factor receptor-2) (Homo sapiens, UniProt P04626); assay: Kinase Selectivity Assay HER2; format: biochemical
T8 construct: begins at amino acid 676 followed by the remainder of the HER2 cytoplasmic domain; polyhistidine (N)
T8 sequence (P04626 676-1255 limits assumed): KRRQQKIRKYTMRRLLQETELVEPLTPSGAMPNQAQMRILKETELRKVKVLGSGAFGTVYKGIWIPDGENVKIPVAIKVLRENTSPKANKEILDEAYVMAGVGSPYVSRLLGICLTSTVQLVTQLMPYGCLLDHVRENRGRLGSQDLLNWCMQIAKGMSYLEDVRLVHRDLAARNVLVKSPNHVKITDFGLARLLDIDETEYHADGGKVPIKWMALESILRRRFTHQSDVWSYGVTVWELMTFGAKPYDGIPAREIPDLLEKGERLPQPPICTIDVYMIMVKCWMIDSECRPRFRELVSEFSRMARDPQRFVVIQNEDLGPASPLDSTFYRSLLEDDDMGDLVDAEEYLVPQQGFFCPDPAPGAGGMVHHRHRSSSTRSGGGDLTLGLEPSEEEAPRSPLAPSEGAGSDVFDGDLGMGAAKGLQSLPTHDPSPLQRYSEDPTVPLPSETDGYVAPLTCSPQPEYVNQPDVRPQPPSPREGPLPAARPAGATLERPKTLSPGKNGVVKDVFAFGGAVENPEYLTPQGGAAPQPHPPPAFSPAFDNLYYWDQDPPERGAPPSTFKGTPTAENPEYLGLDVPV
How it was run: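 Reactions ran one hour at 30° C in 1% DMSO with enzyme diluted in 50 mM Tris-HCl pH 8.0, 0.1% BSA. Scintillation counting read ^33P incorporated into immobilized biotinylated peptide.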

[7] = target: T9, Glycogen Synthase Kinase-3 (beta isoform) (Oryctolagus cuniculus, UniProt G1T8E2); assay: Kinase Selectivity Assay Glycogen Synthase Kinase-3; format: biochemical, rabbit; conditions: Kinase Selectivity, Tables 2a-2k; read-out: GSK-3 IC50
T9 construct: purchased New England Biolabs 6040; host or cells: E. coli
T9 sequence (G1T8E2 1-432): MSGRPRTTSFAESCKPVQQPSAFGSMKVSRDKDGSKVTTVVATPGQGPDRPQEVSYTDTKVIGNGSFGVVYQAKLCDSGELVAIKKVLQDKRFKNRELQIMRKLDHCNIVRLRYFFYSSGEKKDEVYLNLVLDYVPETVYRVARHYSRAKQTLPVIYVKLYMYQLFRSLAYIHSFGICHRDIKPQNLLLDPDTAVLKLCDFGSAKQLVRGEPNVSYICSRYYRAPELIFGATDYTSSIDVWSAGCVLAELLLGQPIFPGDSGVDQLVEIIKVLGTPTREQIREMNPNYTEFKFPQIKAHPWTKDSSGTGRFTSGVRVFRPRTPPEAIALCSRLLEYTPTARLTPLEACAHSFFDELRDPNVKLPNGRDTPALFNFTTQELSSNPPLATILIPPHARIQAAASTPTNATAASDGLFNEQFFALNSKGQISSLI
Description: as §1, §2

FGF-R2 = FGF-R2 (Homo sapiens, UniProt P21802); assay: Kinase Selectivity Assay FGF-R2; format: biochemical; conditions: Tables 2a-2k
Chain of FGF-R2 (P21802 22-821, species assumed): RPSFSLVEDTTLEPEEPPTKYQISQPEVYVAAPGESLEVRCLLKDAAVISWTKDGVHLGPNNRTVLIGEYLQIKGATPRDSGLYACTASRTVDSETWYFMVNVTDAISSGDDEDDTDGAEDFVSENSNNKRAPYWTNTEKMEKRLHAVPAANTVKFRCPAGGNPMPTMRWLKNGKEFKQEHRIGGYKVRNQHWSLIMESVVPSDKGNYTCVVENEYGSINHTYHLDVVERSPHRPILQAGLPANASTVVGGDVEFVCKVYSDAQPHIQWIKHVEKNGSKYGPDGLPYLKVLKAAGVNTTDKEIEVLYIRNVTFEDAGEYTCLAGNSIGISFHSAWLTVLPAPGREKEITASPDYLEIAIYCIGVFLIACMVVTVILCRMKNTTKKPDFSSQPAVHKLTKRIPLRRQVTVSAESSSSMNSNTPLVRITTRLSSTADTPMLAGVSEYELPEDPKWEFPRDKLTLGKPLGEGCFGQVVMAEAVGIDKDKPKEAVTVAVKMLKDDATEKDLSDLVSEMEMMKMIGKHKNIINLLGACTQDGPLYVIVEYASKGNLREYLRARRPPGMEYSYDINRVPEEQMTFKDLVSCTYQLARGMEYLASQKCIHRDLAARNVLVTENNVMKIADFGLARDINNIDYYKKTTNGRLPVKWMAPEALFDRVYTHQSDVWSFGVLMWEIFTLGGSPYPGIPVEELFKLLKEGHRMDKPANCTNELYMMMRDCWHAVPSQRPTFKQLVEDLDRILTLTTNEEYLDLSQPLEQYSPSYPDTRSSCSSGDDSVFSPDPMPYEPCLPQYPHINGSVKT
Description: as §1

HCT-116 colon carcinoma = assay: Inhibition of Cell Proliferation (14C-thymidine incorporation), HCT-116; format: cell-based; conditions: Homo sapiens, HCT-116 cell line
Description: (§3) The ability of a test compound to inhibit the proliferation of cell growth was determined by measuring incorporation of ^14C-labelled thymidine into newly synthesized DNA within the cells. This method was used on cell lines derived from carcinomas originating from several tissues such as HeLa cervical adenocarcinoma (American Type Culture Collection (ATCC), Virginia, Cat. #CCL-2), A375 malignant melanoma (ATCC CRL-1619), SK-OV-3 ovarian adenocarcinoma (ATCC HTB-77) HCT-116 colon carcinoma (CCL-247), PC-3 prostate adenocarcinoma (ATCC CRL-1435), and MDA-MB-231 (Xenogen Corp.) In this way the effect of a compound on cell growth of cells with many different phenotypes can be determined. Cells were trypsinized and counted and 3000-8000 cells were added to each well of a 96-well CytoStar tissue culture treated scintillating microplate (Amersham #RPNQ0160) in complete medium in a volume of 100 μl. Cells were incubated for 24 hours in complete medium at 37° C. in an atmosphere containing 5% CO2. Next, 1 μl of test compound in 100% DMSO was added to the wells of the plate. DMSO only was added to control wells. Cells were incubated for 24 more hours in complete medium at 37° C. in an atmosphere containing 5% CO2. Methyl ^14C-thymidine 56 mCi/mmol (NEN #NEC568 or Amersham #CFA532) was diluted in complete medium and 0.2 uCi/well was added to each well of the CytoStar plate in a volume of 20 μl. The plate was incubated for 24 hours at 37° C. plus 5% CO2 in drug plus ^14C-thymidine. The contents of the plate were discarded into a ^14C radioactive waste container by inverting the plate and the plate was washed twice with 200 μl PBS. 200 μl of PBS is added to each well. The top of the plate was sealed with a transparent plate sealer and a white plate backing sealer (Packard #6005199) was applied to the bottom of the plate. The degree of methyl ^14C-thymidine incorporation was quantified on a Packard Top Count.

[8] = test system: HeLa cervical adenocarcinoma; assay: Inhibition of Cell Proliferation (14C-thymidine incorporation), HeLa; format: cell-based; conditions: Homo sapiens, HeLa cell line
Description: as §3

A375 malignant melanoma = assay: Inhibition of Cell Proliferation (14C-thymidine incorporation), A375; format: cell-based; conditions: Homo sapiens, A-375, A375 cell line
Description: as §3

[9] = target: T10, CDK2 in complex with cyclin A (Homo sapiens, UniProt P24941); assay: Kinase Selectivity Assay CDK2; format: biochemical; conditions: Table 1
T10 construct: purchased Upstate Biotech
Description: as §1, §2

[10] = target: T11, VEGF-R (vascular endothelial growth factor receptor-2) (Rattus norvegicus, UniProt O08775); assay: VEGF-R Screening Assay; format: biochemical; conditions: read-out: VEGF-R IC50
T11 construct: polyhistidine (6xHIS) (N)

[11] = Kinase Selectivity, Tables 2a-2k
[12] = Kinase Selectivity, Tables 2a-2k, read-out: HER2 Kinase IC50

SMILES | IC50 (CDK1:Cyclin-B; [11]) | IC50 (CDK1:Cyclin-B; Table 1) | IC50 [1] | IC50 [2] | IC50 (Protein Kinase A) | IC50 [3] | IC50 [4] | IC50 [5] | IC50 (Insulin Receptor Kinase) | IC50 [6, 12] | IC50 ([6]; Table 1, read-out: HER2 IC50) | IC50 [7] | IC50 (FGF-R2) | IC50 (HCT-116 colon carcinoma) | IC50 [8] | IC50 (A375 malignant melanoma) | IC50 [9] | IC50 [10, 11] | IC50 ([10]; Table 1)
Nc1ccc(F)c(C(=O)n2nc(Nc3ccc(S(N)(=O)=O)cc3)nc2N)c1F [Cpd 55, 4-[[5-amino-1-(3-amino-2,6-difluorobenzoyl)-1H-1,2,4-triazol-3-yl]amino]-benzenesulfonamide] | 20 nM | 22 nM | 9600 nM | > 100000 nM | > 100000 nM | 16200 nM | > 100000 nM | 12900 nM | > 100000 nM | 2190 nM | 2190 nM | 40 nM | 478 nM |  |  |  |  |  | 
Cc1ccc(F)c(C(=O)n2nc(Nc3ccc(S(=O)(=O)NCCN(C)C)cc3)nc2N)c1F [Cpd 105] |  |  | 4490 nM | > 100000 nM | > 100000 nM | 2200 nM | > 100000 nM | 18200 nM | 9850 nM |  |  | 82 nM | 142 nM | 320 nM | 626 nM | 652 nM | 2 nM |  | 
Cc1cc(C)c(C(=O)n2nc(Nc3ccc(S(=O)(=O)NCCN(C)C)cc3)nc2N)s1 [Cpd 107] |  |  | 412 nM | 3430 nM | > 100000 nM | 143 nM | > 10000 nM | > 10000 nM | 311 nM |  |  | 15 nM | 235 nM | 95 nM | 177 nM | 113 nM | 2 nM |  | 
CCc1ccc(C(=O)n2nc(Nc3ccc(NS(C)(=O)=O)cc3)nc2N)s1 [Cpd 110] |  |  | 192 nM | > 100000 nM | > 100000 nM | 285 nM | > 5000 nM | 8750 nM | 53 nM | 6 nM | 5.5 nM | 8 nM | 153 nM | 187 nM | 237 nM | 239 nM | 5 nM |  | 
Cc1ccc(F)c(C(=O)n2nc(Nc3ccc(N4CCNC4=O)cc3)nc2N)c1F [Cpd 114, 1-[4-[[5-amino-1-(2,6-difluoro-3-methylbenzoyl)-1H-1,2,4-triazol-3-yl]amino]phenyl]-2-imidazolidinone] |  |  | 2000 nM | > 100000 nM | > 100000 nM | 13800 nM | > 100000 nM | 15800 nM | > 100000 nM |  |  | 431 nM |  | 1380 nM | 2530 nM | 1690 nM |  |  | 
Nc1nc(Nc2ccc(N3CCNC3=O)cc2)nn1C(=O)c1c(F)cccc1F [Cpd 115, 1-[4-[[5-amino-1-(2,6-difluorobenzoyl)-1H-1,2,4-triazol-3-yl]amino]phenyl]-2-imidazolidinone] |  |  | 9980 nM | > 100000 nM | > 100000 nM | > 10000 nM | > 100000 nM | > 10000 nM | > 10000 nM |  |  | 391 nM |  | 486 nM | 676 nM | 529 nM |  |  | 
Cc1ccsc1C(=O)n1nc(Nc2ccc(S(=O)(=O)Nc3ccccn3)cc2)nc1N [Cpd 121] |  |  | > 10000 nM | > 100000 nM | > 100000 nM | 394 nM | > 100000 nM | > 100000 nM | > 100000 nM |  |  | 29 nM |  | 608 nM | 310 nM | 215 nM | 3 nM |  | 
Nc1nc(Nc2ccc(S(N)(=O)=O)cc2)n(C(=S)Nc2c(F)cccc2F)n1 [Cpd 128, 3-amino-5-[[4-(aminosulfonyl)phenyl]amino]-N-(2,6-difluorophenyl)-1H-1,2,4-triazole-1-carbothioamide] |  |  | 8970 nM | 13200 nM | > 100000 nM | 1910 nM | > 100000 nM | 2070 nM | 2650 nM |  |  | 94 nM |  |  |  |  | 3.3 nM | 118 nM | 118 nM
